Data: US8715638B2, “Ethenyl-substituted pyridine and pyrimidine derivatives and their use in treating viral infections” (Merck Sharp & Dohme Corp., priority 2008, dated 2014)

tested on: HCV replicon cells; experiment: Cell-based HCV Replicon Assay; conditions: Hepatitis C virus, 72 h; HCV replicon RNA level by real time PCR (Taqman), cells harvested on day 3; EC90 = concentration to achieve ΔCT=3.2 over baseline
Experimental: Assays Cell-based HCV Replicon Assay
To measure cell-based anti-HCV activity of the compounds of the present invention, replicon cells were seeded at 5000 cells/well in 96-well collagen I-coated Nunc plates in the presence of the compound of the invention. […] The final concentration of DMSO was 0.5%, fetal bovine serum was 10%, in the assay media. […] The replicon RNA level was measured using real time PCR (Taqman assay). The amplicon was located in 5B. […] GAPDH RNA was used as endogenous control and was amplified in the same reaction as NS5B (multiplex PCR) using primers and VIC-labeled probe recommended by the manufacturer (PE Applied Biosystem). The real-time RT-PCR reactions were run on ABI PRISM 7900HT Sequence Detection System using the following program: 48° C. for 30 min, 95° C. for 10 min, 40 cycles of 95° C. for 15 sec, 60° C. for 1 min. The ΔCT values (CT5B-CTGAPDH) were plotted against the concentration of test compound and fitted to the sigmoid dose-response model using GraphPad PRISM software. EC50 was defined as the concentration of inhibitor necessary to achieve ΔCT=1 over the projected baseline; EC90 the concentration necessary to achieve ΔCT=3.2 over the baseline. Alternatively, to quantitate the absolute amount of replicon RNA, a standard curve was established by including serially diluted T7 transcripts of replicon RNA in the Taqman assay. All Taqman reagents were from PE Applied Biosystems. Such an assay procedure was described in detail in e.g. Malcolm et al., Antimicrobial Agents and Chemotherapy 50: 1013-1020 (2006).

`Nc1nc(Cl)c(/C=C/c2cc(F)cc(F)c2)c(N[C@@H]2C[C@H](CO)[C@@H](O)[C@H]2O)n1` [compound 4] and `Nc1nc(Cl)c(/C=C/c2ccc(F)c(F)c2)c(N[C@@H]2C[C@H](CO)[C@@H](O)[C@H]2O)n1` [compound 6] cannot be ordered by EC90: ≤ 5 µM for the first, ≤ 5 µM for the second.

`CSc1nc(N)nc(N[C@@H]2C[C@H](CO)[C@@H](O)[C@H]2O)c1/C=C/c1ccccc1` [compound 16] and `Cc1ccccc1/C=C/c1c(Cl)nc(N)nc1N[C@@H]1C[C@H](CO)[C@@H](O)[C@H]1O` [compound 13] cannot be ordered by EC90: > 5 µM for the first, > 5 µM for the second.

`Nc1nc(Cl)c(/C=C/c2ccccc2Cl)c(N[C@H]2C=C[C@@H](CO)C2)n1` [compound 17] and `Nc1nc(Cl)c(/C=C/c2ccccc2F)c(N[C@@H]2C[C@H](CO)[C@@H](O)C2)n1` [compound 15] cannot be ordered by EC90: > 5 µM for the first, > 5 µM for the second.

`Nc1nc(Cl)c(/C=C/c2cccc(F)c2F)c(N[C@@H]2C[C@H](CO)[C@@H](O)[C@H]2O)n1` [compound 9] and `Nc1nc(Cl)c(/C=C/c2cccc(Oc3ccccc3)c2)c(N[C@@H]2C[C@H](CO)[C@@H](O)[C@H]2O)n1` [compound 10] cannot be ordered by EC90: ≤ 5 µM for the first, ≤ 5 µM for the second.
